Columns and labels:
CP-AMPAR = test: Ca2+ imaging of hippocampal brain slices, AMPA+CTZ application, ob/ob mice; type: cell-based, mouse
[1] = Body weight monitoring of HFD-fed mice; type: in vivo, mouse
Method: Male C57BL/6J background and ob/ob mice were obtained from CLEA Japan Inc. and Japan SLC, respectively (3). The reason why male mice were selected is that it has been reported that male mice are susceptible to HFD, such as weight gain, metabolic changes, and disorder of learning and hippocampal synaptic plasticity. These animals were housed 3 to 4 per cage in a standard 12 hour dark-light cycle room at 25° C. in an environment with freely available food and water. All animal experiments were performed in accordance with the guidelines of the Animal Experiment Ethics Committee of the University of the Ryukyus. Time series changes in average food intake and average body weight were monitored in each condition.
Post-weaning (6 weeks) food intake and body weight of mice maintained on control diet (CD), high-fat diet (HFD), or HFD containing PER (Fycompa (trademark), Eisai, Japan) (5 mg/kg/day) was monitored up to 18 w (FIGS. 2, E and F). […]
Mice were then split into an HFD-fed group (n=5) and a PER-containing HFD-fed group (n=5) under the condition of the same feeding amount (refer to lower Panel of FIG. 25) and their body weights monitored.

HFD mice = test: Golgi staining of hippocampus, HFD mice; type: in vivo, mouse; conditions: HFD mice with PER
Excerpt: Coronal sections of mouse brains from Bregma −0.94 mm to Bregma −4.04 mm (5 mm wide, including the entire hippocampus from dorsal to ventral, medial to lateral) were fixed with 4% paraformaldehyde for 2 days, and then stained with the Golgi Cox staining system (FD Rapid GolgiStain™ Kit, MD 21041, USA). The impregnated tissues were cut into 100 μm sections and counterstained with crystal violet, and the total number of 15 μm spines on the apical dendrites of CA1 and DG and the percentage of morphologic spines (thin, stubby, mushroom) were examined using an Axio Observer Z1 (Carl Zeiss, Germany). Another set of paraformaldehyde-fixed 5 mm wide coronal sections of the brain, including the entire hippocampus, were processed using the passive CLARITY technique (PACT) (62) and examined through Lightsheet Z.1 (Carl Zeiss, Germany) using a 10× clear objective lens, and 3D images of Thy1-YFPH transgenic mice (the Jackson Laboratory, stock number: 003709, strain name: B6.Cg-Tg.(Thy1-YFP)16Jrs/J) (63, 64), HFD-fed mice, and whole hippocampus of the HFD-fed mice with PER treatment. were acquired respectively. Maximum intensity projection images were acquired along the Z dimension, time dimension, and channel dimension to create an output image with the pixel containing the maximum value for all images in the stack at a particular pixel position. […]

NL-GF mice = test: Novel object recognition test, AD model mice (NL-GF); type: in vivo, mouse; conditions: NL-GF mice n=5; CD diet with perampanel 5 mg/kg body weight/day from 8 to 13 weeks of age
Method: Mice of CD, HFD, and HFD with PER treatment were handled daily for 5 minutes for 5 days prior to the start of the novel object recognition test. PER means the perampanel, which is an AMPA receptor antagonist. The mice were habituated to a 35 cm square, 25 cm high box for 10 minutes on the first day, and were given 2 identical objects (familiar objects) for 10 minutes on the second day. On the third day, one of the familiar objects was replaced with a novel object of different shape and color (FIG. 2F). […] The search time for each object was measured by offline analysis (47).
NL-GF mice begin to accumulate in the brain of Aβ from 8 weeks of age (Nat. Neurosci. 2014 17,661-4). In this example, the AD model mouse (n=5) was fed a CD diet containing a perampanel at a dose of 5 mg/kg body weight/day from 8 to 13 weeks of age, and the mouse was subjected to a novel object recognition test. In the negative control (n=5), a normal CD diet without perampanel was taken.

[2] = Appearance and body weight of ob/ob mice; type: in vivo, mouse; conditions: ob/ob mice fed perampanel-containing diet 5 mg/kg body weight from 8 to 12 weeks of age
Method: ob/ob mice and their littermates with wild-type traits were obtained as the offspring of ob+/− mice. These mice were fed freely and some of the ob/ob mice were fed perampanel-containing diet at 5 mg/kg body weight from 8 to 12 weeks of age. The appearance and body weight of these mice were compared at 12 weeks of age.

SMILES: N#Cc1ccccc1-c1cc(-c2ccccn2)cn(-c2ccccc2)c1=O [PER, 3-(2-cyanophenyl)-5-(2-pyridyl)-1-phenyl-1,2-dihydropyridine-2-one]
- inhibitory effect on CP-AMPAR in EC, CA1, CA2, CA3, DG (CP-AMPAR; ob/ob mice slices, 100 μM, p<0.05 (FIG. 10-1A)): significant inhibitory effect
- Ca2+ permeability via CP-AMPAR in all hippocampal subregions (CP-AMPAR; ob/ob mice, PER administration, p<0.05): significant inactivation
- body weight of HFD-fed mice ([1]; HFD containing PER 5 mg/kg/day from 6 weeks, effect started from 16 w compared to HFD): significant inhibition
- body weight under the condition of the same feeding amount ([1]; PER-containing HFD-fed group n=5 vs HFD-fed group n=5): significant body weight loss
- spine maturity in DG (HFD mice): immature spines became mature
- novel object recognition test (NL-GF mice): significantly distinguish
- overweight / appearance at 12 weeks of age [2]: overweight was prevented

— US20250281474A1, “PHARMACEUTICAL COMPOSITION FOR TREATING COGNITIVE DECLINE OR FOR TREATING OVERWEIGHTNESS OR OBESITY” (University of the Ryukyus, priority 2021, published 2025)
